Four molecules from publication PMC3154276, “The Effect of the Potential PhoQ Histidine Kinase Inhibitors on Shigella flexneri Virulence” (PLoS ONE, 2011) can be followed below.

What all share (format): cell-based
Series [1] has as its system S. flexneri 2a 301 phoQ/phoP knock-out mutant (Sf301 ΔphoQ/phoP). Put plainly: Gentamicin protection assay, HeLa cell invasion by phoQ/phoP knock-out mutant. To be noted: HeLa cells; for cell invasion rate of Sf301 ΔphoQ/phoP: untreated mutant 0.069; for effect on cell invasion of Sf301 phoQ/phoP knock-out mutant: Figure 6C. The protocol: Bacterial ability to invade HeLa cells was tested with a gentamicin protection assay. HeLa cells were grown in six-well tissue culture plates to semi-confluent monolayers (DMEM, 10% FCS, 5% CO2). Sf9380 or Sf301 ΔphoQ/phoP was treated with potential PhoQ inhibitors for 8 hours in LB at 37°C (final concentrations of 100,50,25,12.5 or 6.25 µmol/L) prior to infection. The bacteria pre-treated with potential PhoQ inhibitor without washing, were added to semi-confluent HeLa cells at a multiplicity of infection of 100, at the same time the bacteria were diluted and plated onto LB agar plates. The CFUs were counted as initial bacterial number before added into HeLa cells. Then the plates were centrifuged at 900×g for 5 minutes. After incubating at 37°C for 60 minutes (For testing intracellular growth and spreading to adjacent cell, cells were further incubated for 290 min [9].), the cells were washed three times with PBS, and gentamicin was added to the medium to a final concentration of 10 µg/ml for 20 minutes at 37°C. After the incubation, the HeLa cells in each well were lysed in 1 ml of PBS containing 0.1% Triton X-100 for 10 minutes at room temperature. The lysates were diluted and plated onto LB agar plates in triplicate. Colonies grown on LB plates were counted. The results of the assays were expressed as the number of bacteria recovered from gentamicin-treated cells divided by the number of inoculated bacteria added to the cell. The cells were inoculated with untreated Sf9380 or Sf301 ΔphoQ/phoP (treated without DMSO) as a positive control and E. coli ATCC 25922, an avirulent strain treated without DMSO, as a negative control. DMSO is the solvent of the potential PhoQ inhibitor compounds; therefore, Sf9380 was also treated with the same amount of 0.1% DMSO as the other groups to control for any DMSO-specific effects. The cell invasion assay was performed in triplicate for each potential PhoQ inhibitor, and the assay was repeated twice.

The subject of series [2] is Salmonella enterica Typhimurium SL1344. As to the kind of experiment: Salmonella cell invasion assay (gentamicin protection, HeLa cells). The conditions noted are these: for cell invasion rate of Salmonella enterica Typhimurium SL1344: HeLa cells, untreated Salmonella 6×10^−2; for effect on cell invasion of Salmonella SL1344 (words, discussion): Figure 7, concentration not restated. The procedure:
The effects of potential PhoQ inhibitors on cell invasion of Salmonella were determined by gentamicin protection assay.
Figure 7 The effects of potential PhoQ inhibitors on cell invasion of Salmonella. […] The bacteria pre-treated with potential PhoQ inhibitor were added to HeLa cells at a multiplicity of infection of 100. Then gentamicin was added to kill extracellular bacteria and cell lysates were plated onto LB plates, and the colonies were counted. The results of the assays were expressed as the number of bacteria recovered from gentamicin-treated cells divided by the number of inoculated bacteria added to the cell. Salmonella enterica typhimurium SL1344 served as the positive control for the cell invasion assay; E. coli ATCC 25922 (treated without DMSO), an avirulent strain, served as the negative control for the cell invasion assay; bacteria treated with 0.1% DMSO also served as a control for the cell invasion assay. Values are means ± standard deviations from 6 independent wells. *p<0.01 vs. SL1344.
The gentamicin protection assay was used as a cellular model to evaluate the inhibitory effect of the four potential PhoQ inhibitors. Salmonella enterica typhimurium SL1344 was treated with each of the four potential PhoQ inhibitors (final concentrations: potential PhoQ inhibitor 1 was 12.5 µmol/L, 2 was 25 µmol/L, 3 was 100 µmol/L and 4 was 100 µmol/L) and grown for 8 hours. The bacteria pre-treated with potential PhoQ inhibitor without washing, were added to HeLa cells at a multiplicity of infection of 100, at the same time the bacteria were diluted and plated onto LB agar plates. The CFUs were counted as initial bacterial number before added into HeLa cells. Next, the bacteria were inoculated to HeLa cells and incubated with for 60 minutes prior to the addition of gentamicin to kill extracellular bacteria. After the incubation, the HeLa cells in each well were lysed in 1 ml of PBS containing 0.1% Triton X-100 for 10 minutes at room temperature. The lysates were diluted and plated onto LB agar plates in triplicate. Colonies grown on LB plates were counted. The results of the assays were expressed as the number of bacteria recovered from gentamicin-treated cells divided by the number of inoculated bacteria added to the cell. After lysates of HeLa cells were plated, the number of CFU that formed on LB agar were counted. The cells were inoculated with untreated SL1344 (treated without DMSO) as a positive control and E. coli ATCC 25922, an avirulent strain treated without DMSO, as a negative control. SL1344 was treated with the same amount of 0.1% DMSO as the other groups to control for any DMSO-specific effects. The cell invasion assay was performed in triplicate for each potential PhoQ inhibitor, and the assay was repeated twice.

The nature of series [3]: Cytotoxicity MTT assay on Vero cells. The conditions noted are these: African green monkey, highest concentration tested 200 µmol/L, read-out: CC50 on Vero cell. The procedure: The cytotoxicity of each potential PhoQ inhibitor towards a Vero cell line was analyzed by the traditional MTT assay. The CC50 values of all four compounds were higher than 200 µmol/L, the highest tested concentration of potential PhoQ inhibitors. As a control, an equal concentration of DMSO (0.1%) was added to a well of Vero cells, and no obvious cytotoxicity was observed (Table 1).
Cytotoxicity of the potential PhoQ inhibitors on cultured Vero cells was measured by using the Cell Proliferation Kit I (MTT) (Roche, Indianapolis, USA). An equal concentration of DMSO (0.1%) in the medium was used as a negative control. The cytotoxicity assay was performed in triplicate for each potential PhoQ inhibitor, and the assay for each potential PhoQ inhibitor was repeated twice. The results were converted to percentage of the control (cells only containing 0.1% DMSO) and CC50 (concentrations that produce a 50% cytotoxicity effect on Vero cell) of each potential PhoQ inhibitors was calculated using the Origin v7.0 software (OriginLab, Northampton, USA).

In the case of `O=C(Nc1ccc(C2(c3cccc(NC(=O)c4cccc5ccccc45)c3)c3ccccc3C(=O)c3ccccc32)cc1)c1ccc2ccccc2c1` [Compound 1], in series [1] (12.5 µmo/L), the “cell invasion rate of Sf301 ΔphoQ/phoP” value is 0.064. Moreover, the “effect on cell invasion of Sf301 phoQ/phoP knock-out mutant” value in series [1] was “no obvious effects”. Further, in series [2] (12.5 µmo/L), the “times lower invasion than the control, SL1344” value is recorded as 6.74 times and the “cell invasion rate of Salmonella enterica Typhimurium SL1344” value is reported as 0.89×10^−2. For the same molecule, in series [2], the “effect on cell invasion of Salmonella SL1344 (words, discussion)” value (from here on “effect … (words, discussion)”) is “inhibited”. In addition, in series [3], the CC50 was > 200 µM.
With `CCOc1ccccc1-c1cc(C(=O)N/N=C/c2ccc(OCc3ccccc3)c(OC)c2)c2ccccc2n1` [Compound 2], the “cell invasion rate of Sf301 ΔphoQ/phoP” value in series [1] (25 µmo/L) is reported as 0.102. Besides, the “effect on cell invasion of Sf301 phoQ/phoP knock-out mutant” value in series [1] is “no obvious effects”. For the same molecule, in series [2] (25 µmo/L), the “times lower invasion than the control, SL1344” value stood at 3.84 times and the “cell invasion rate of Salmonella enterica Typhimurium SL1344” value is recorded as 1.564×10^−2. Also, the “effect … (words, discussion)” value in series [2] is given as “inhibited”. Moreover, in series [3], the CC50 is > 200 µM.
Consider `O=C(O)c1ccc(Cl)c(-c2ccc(/C=N/NC(=O)c3ccc(Br)cc3)o2)c1` [Compound 3], for which, in series [1] (100 µmo/L), the “cell invasion rate of Sf301 ΔphoQ/phoP” value was 0.083. The “effect on cell invasion of Sf301 phoQ/phoP knock-out mutant” value in series [1] was “no obvious effects”. In addition, in series [2] (100 µmo/L), the “times lower invasion than the control, SL1344” value came out at 166 times and the “cell invasion rate of Salmonella enterica Typhimurium SL1344” value was 0.036×10^−2. In series [2], the “effect … (words, discussion)” value was “inhibited”. Moreover, the CC50 in series [3] was > 200 µM.
For `O=C(O)c1cc(-c2ccc(-c3ccccc3Cl)o2)nc2ccc3ccccc3c12` [Compound 4], in series [1] (100 µmo/L), the “cell invasion rate of Sf301 ΔphoQ/phoP” value stood at 0.053. Moreover, in series [2] (100 µmo/L), the “effect on cell invasion of SL1344” value is listed as “no obvious effect” and the “cell invasion rate of Salmonella enterica Typhimurium SL1344” value is recorded as 5.7×10^−2. The “effect … (words, discussion)” value in series [2] is recorded as “no obvious effect”. For the same molecule, the CC50 in series [3] was > 200 µM.
